# Values quoted from earlier work in US20190358206A1, “TOPICAL FORMULATIONS OF BIARYL HETEROCYCLIC COMPOUNDS AND METHODS OF USE THEREOF” (Melinta Subsidiary Corp., priority 2016, published 2019).
# Tested on: intracellular S. aureus (including linezolid-resistant), Listeria monocytogenes and Legionella pneumophila
# Conditions: cited from earlier work
smiles,measurement,value
"CC(=O)NC[C@H]1CN(c2ccc(-c3ccc(CNCc4cnn[nH]4)cc3)c(F)c2)C(=O)O1 [Radezolid, N-[3-(2-Fluoro-4′-{[(1H-[1,2,3]triazol-4-ylmethyl)-amino]-methyl}-biphenyl-4-yl)-2-oxo-oxazolidin-5-(S)-ylmethyl]-acetamide]",intracellular killing,"kills intracellular S. aureus (including linezolid-resistant), Listeria monocytogenes and Legionella pneumophila"
